This test has as its system benzodiazepine receptors. The test can be described thus: in vivo displacement of 3H-flunitrazepam from brain benzodiazepine receptors in mice. Further details: species or system mice (female, NMR). The conditions noted are these: i.p. test substance 15 min before 3H-flunitrazepam i.v., dose reducing specific forebrain binding to 50% of control. The text has this: The pharmaceutical properties of the compounds of the invention can be illustrated by determining their capability for displacing radioactive labelled flunitrazepam from benzodiazepine receptors.
The displacement activity of the compounds of the invention may be found by determining the ED50 value. The ED50 value represents the dose (mg/kg) of a test substance which causes the specific binding of flunitrazepam to benzodiazepine receptors in a living brain to be reduced to 50% of the control value.
Such an in vivo test is carried out as follows:
Principle. Twenty minutes after a dose of ^3 H-flunitrazepam (^3 H-FNM) (200μCi/kg, i.v.) the amount of specific ^3 H-FNM binding to brain benzodiazepine receptors has reached its maximal value.
Test procedure. Suspensions of test substances (2 mg/ml) are prepared in 5% Duphasol-X (TM Duphar, castor oil-ethylene oxide derivative for emulsifying and solubilizing oil and other water-insoluble substances) by sonification for 10 min using a Branson B15 microtip ultrasonifier (setting 7). Groups of three mice (female, NMR, 18-22 grams) are injected with the test substance at 100 mg/kg intraperitoneally. Fifteen minutes after test substance administration the mice are challenged with 4 μCi intravenously of ^3 H-FNM (70-90 Ci/mole) in 200 μl physiological saline. Twenty minutes after ^3 H-FNM administration mice are sacrificed by decapitation, the forebrains rapidly excised (within 30 sec) and homogenized in 12 ml of icecold 25 mM KH2 PO4, pH 7.1, using an Ultra-Turrax homogenizer fitted with an N 10 shaft. Two aliquots of 1 ml are immediately filtered through Whatman GF/C glassfibre filters and washed with 2×5 ml of the above mentioned buffer. The amounts of radioactivity on the filters are determined by conventional scintillation counting. One group of untreated mice serves as control. One to three mice are injected with 25 μg/kg clonazepam i.p. 30 minutes before ^3 H-FNM to determine the amount of non-specific ^3 H-FNM binding, which should be between 8-15% of total binding. When doses of 100 mg/kg inhibit more than 50% of specific ^3 H-flunitrazepam binding; test substances are administered in doses, which are factors of 3.16 times lower than 100 mg/kg. The ED50 for a test substance is defined as that dose which inhibits 50% of specific ^3 H-FNM binding. Specific binding is the amount of binding in controls minus the amount binding in clonazepam-treated mice.
Results. The ED50 value is determined from dose response curves. If only one dose of test substance is administered the ED50 value is calculated as follows, provided that the inhibition of specific binding is within the range of 25-75%: [formula] where Co is specific binding in controls and Cx is specific binding in mice treated with test substance.

As to `Cn1c(=O)c2c(-c3nc(C4CC4)no3)ncn2c2cccnc21`, the “in vivo bind. ED50” value is on record as 0.9 mg/kg. Regarding `Cn1c(=O)c2c(Oc3ccc(F)cc3)cccc2n2cnc(-c3noc(C4CC4)n3)c12`, the “in vivo bind. ED50” value was 2.9 mg/kg.

Regarding `CCn1c(=O)c2c(-c3nc(C4CC4)no3)ncn2c2ccccc21`, the “in vivo bind. ED50” value is on record as 1.4 mg/kg.

As to `CCn1c(=O)c2c(-c3noc(C4CC4)n3)ncn2c2cccnc21`, the “in vivo bind. ED50” value was found to be 0.7 mg/kg.

`Cc1nc(-c2ncn3c4cccc(C#C[Si](C)(C)C)c4c(=O)n(C)c23)no1` [4,5-Dihydro-4-methyl-3-(5-methyl-1,2,4-oxadiazol-3-yl)-5-oxo-6-trimethylsilylethynyl-imidazo(1,5-a)quinazoline]: the “in vivo bind. ED50” value is 3.7 mg/kg.
